Assay results published in patent US7598417B2, “Substituted fluoroethyl ureas as alpha 2 adrenergic agents” (Allergan, Inc., priority 2007, dated 2009).

How the values were obtained:
Format in all cases: cell-based
alpha2B receptor = target: T1, alpha2B receptor (Homo sapiens, UniProt P18089); test: Receptor Selection and Amplification Technology (RSAT) assay, alpha2B; details: for EC50: RSAT, NIH-3T3 cells cotransfected with receptor and Gq/i5, not active = not active at concentrations less than 10 micromolar, read-out: Alpha 2B EC50; for Alpha 2B IA (intrinsic activity): ratio of maximal effect of the drug to maximal effect of standard full agonist brimonidine (UK14304)
T1 construct: expressed in transfected cells; host or cells: NIH-3T3
T1 sequence (P18089 1-450): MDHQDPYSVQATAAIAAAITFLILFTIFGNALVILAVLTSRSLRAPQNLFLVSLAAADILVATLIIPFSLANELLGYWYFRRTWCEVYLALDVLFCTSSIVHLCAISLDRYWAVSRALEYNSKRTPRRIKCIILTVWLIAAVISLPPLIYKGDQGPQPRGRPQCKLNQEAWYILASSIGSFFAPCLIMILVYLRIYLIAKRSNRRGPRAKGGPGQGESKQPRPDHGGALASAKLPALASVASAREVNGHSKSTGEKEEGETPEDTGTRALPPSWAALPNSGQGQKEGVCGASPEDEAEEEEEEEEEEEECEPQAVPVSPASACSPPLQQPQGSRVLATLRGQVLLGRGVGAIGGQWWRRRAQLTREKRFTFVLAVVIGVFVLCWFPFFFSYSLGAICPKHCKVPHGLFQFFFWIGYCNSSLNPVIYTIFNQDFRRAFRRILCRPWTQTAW
Procedure: (§1) Receptor Selection and Amplification Technology (RSAT) Assay
(§2) The RSAT assay measures a receptor-mediated loss of contact inhibition that results in selective proliferation of receptor-containing cells in a mixed population of confluent cells. The increase in cell number is assessed with an appropriate transfected marker gene such as β-galactosidase, the activity of which can be easily measured in a 96-well format. Receptors that activate the G protein, Gq, elicit this response. Alpha2 receptors, which normally couple to Gi, activate the RSAT response when coexpressed with a hybrid Gq protein that has a Gi receptor recognition domain, called Gq/i5.
(§3) NIH-3T3 cells are plated at a density of 2×10^6 cells in 15 cm dishes and maintained in Dulbecco's modified Eagle's medium supplemented with 10% calf serum. One day later, cells are cotransfected by calcium phosphate precipitation with mammalian expression plasmids encoding p-SV-β-galactosidase (5-10 μg), receptor (1-2 μg) and G protein (1-2 μg). 40 μg salmon sperm DNA may also be included in the transfection mixture. Fresh media is added on the following day and 1-2 days later, cells are harvested and frozen in 50 assay aliquots. Cells are thawed and 100 μl added to 100 μl aliquots of various concentrations of drugs in triplicate in 96-well dishes. Incubations continue 72-96 hr at 37° C. After washing with phosphate-buffered saline, β-galactosidase enzyme activity is determined by adding 200 μl of the chromogenic substrate (consisting of 3.5 mM o-nitrophenyl-β-D-galactopyranoside and 0.5% nonidet P-40 in phosphate buffered saline), incubating overnight at 30° C. and measuring optical density at 420 nm. The absorbance is a measure of enzyme activity, which depends on cell number and reflects a receptor-mediated cell proliferation. The efficacy or intrinsic activity is calculated as a ratio of the maximal effect of the drug to the maximal effect of a standard full agonist for each receptor subtype. Brimonidine, also called UK14304, the chemical structure of which is shown below, is used as the standard agonist for the alpha2A, alpha2B and alpha2C receptors. The EC50 is the concentration at which the drug effect is half of its maximal effect.
The results of the RSAT assay with several exemplary compounds of the invention are disclosed in Table 1 above together with the chemical formulas of these exemplary compounds. EC50 values are nanomolar. NA stands for “not active” at concentrations less than 10 micromolar. IA stands for “intrinsic activity.”

alpha2A receptor = target: T2, alpha2A receptor (Homo sapiens, UniProt P08913); test: Receptor Selection and Amplification Technology (RSAT) assay, alpha2A; details: for Alpha 2A EC50 / EC50: RSAT, NIH-3T3 cells cotransfected with receptor and Gq/i5, not active = not active at concentrations less than 10 micromolar; for EC50: read-out: Alpha 2A EC50; for Alpha 2A IA (intrinsic activity): ratio of maximal effect of the drug to maximal effect of standard full agonist brimonidine (UK14304)
T2 construct: expressed in transfected cells; host or cells: NIH-3T3
T2 sequence (P08913 1-465): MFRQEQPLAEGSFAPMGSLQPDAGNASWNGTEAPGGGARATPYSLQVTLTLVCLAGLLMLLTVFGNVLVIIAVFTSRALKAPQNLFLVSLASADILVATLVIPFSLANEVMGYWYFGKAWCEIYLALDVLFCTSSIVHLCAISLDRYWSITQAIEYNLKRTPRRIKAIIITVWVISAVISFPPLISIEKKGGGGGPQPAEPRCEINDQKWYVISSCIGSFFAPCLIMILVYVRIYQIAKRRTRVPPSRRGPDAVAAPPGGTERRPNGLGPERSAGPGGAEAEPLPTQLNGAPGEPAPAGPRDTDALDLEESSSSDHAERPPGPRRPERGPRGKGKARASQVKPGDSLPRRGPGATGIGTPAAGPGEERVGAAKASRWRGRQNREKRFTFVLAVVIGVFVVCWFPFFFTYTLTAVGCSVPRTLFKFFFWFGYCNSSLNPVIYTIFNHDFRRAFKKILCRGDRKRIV
Procedure: as §1, §2, §3
(§4) EC50 values are nanomolar. NA stands for “not active” at concentrations less than 10 micromolar. IA stands for “intrinsic activity.”

alpha2C receptor = target: T3, alpha2C receptor (Homo sapiens, UniProt P18825); test: Receptor Selection and Amplification Technology (RSAT) assay, alpha2C; details: for EC50 / Alpha 2C EC50: RSAT, NIH-3T3 cells cotransfected with receptor and Gq/i5, not active = not active at concentrations less than 10 micromolar; for EC50: read-out: Alpha 2C EC50; for Alpha 2C IA (intrinsic activity): ratio of maximal effect of the drug to maximal effect of standard full agonist brimonidine (UK14304)
T3 construct: expressed in transfected cells; host or cells: NIH-3T3
T3 sequence (P18825 1-462): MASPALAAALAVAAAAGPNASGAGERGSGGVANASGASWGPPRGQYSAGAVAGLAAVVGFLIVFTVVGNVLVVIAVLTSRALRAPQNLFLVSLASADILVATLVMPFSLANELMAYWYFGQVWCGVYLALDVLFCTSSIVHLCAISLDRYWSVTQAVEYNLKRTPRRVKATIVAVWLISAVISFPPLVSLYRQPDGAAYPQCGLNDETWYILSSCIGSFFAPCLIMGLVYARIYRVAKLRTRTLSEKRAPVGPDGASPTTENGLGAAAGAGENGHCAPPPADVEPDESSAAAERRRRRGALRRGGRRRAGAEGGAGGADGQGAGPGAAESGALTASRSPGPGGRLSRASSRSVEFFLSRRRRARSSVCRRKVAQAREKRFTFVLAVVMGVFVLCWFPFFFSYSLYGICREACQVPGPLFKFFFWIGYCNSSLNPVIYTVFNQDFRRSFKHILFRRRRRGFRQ
Procedure: as §1, §2, §3, §4

Compound | EC50 (alpha2B receptor) [nM] | Alpha 2B IA (intrinsic activity) (alpha2B receptor) | Alpha 2A EC50 (alpha2A receptor) | EC50 (alpha2C receptor) [nM] | Alpha 2C IA (intrinsic activity) (alpha2C receptor) | EC50 (alpha2A receptor) [nM] | Alpha 2A IA (intrinsic activity) (alpha2A receptor) | Alpha 2C EC50 (alpha2C receptor)
CC1=CC(NC(=O)NCCF)CCC1 (stereo not drawn) | 225 | 0.42 | not active | 520 | 0.4 |  |  | 
CC1=C(C=O)CCCC1NC(=O)NCCF (stereo not drawn) | 2580 | 0.81 | not active | 3620 | 0.32 |  |  | 
O=C(NCCF)NC1CCCc2c(F)cccc21 (stereo not drawn) | 8.2 | 1.03 |  | 107 | 0.76 | 68.3 | 0.52 | 
O=C(NCCF)NC1CCCc2occc21 (stereo not drawn) | 90 | 0.81 | not active | 453 | 0.44 |  |  | 
CC1CCC(NC(=O)NCCF)c2ccccc21 (stereo not drawn) | 21 | 0.89 |  | 282 | 0.45 | 331 | 0.34 | 
O=C(NCCF)NC1Cc2ccccc2C1 | 18 | 0.92 | not active | 246 | 0.48 |  |  | 
CCc1cccc2c1CCC2NC(=O)NCCF (stereo not drawn) | 10.6 | 0.99 | not active | 103 | 0.47 |  |  | 
Cc1cccc2c1C(NC(=O)NCCF)CC2 (stereo not drawn) | 26.8 | 0.6 |  | 197 | 0.62 | 189 | 0.43 | 
O=C(NCCF)NC1CCCc2sccc21 (stereo not drawn) | 9.6 | 0.86 | not active | 40 | 0.52 |  |  | 
CCC[C@@H]1CCCC[C@H]1NC(=O)NCCF | 1740 | 0.84 |  |  |  | 1470 | 0.4 | not active
COc1cccc2c1CC(NC(=O)NCCF)C2 (stereo not drawn) | 7.5 | 1.57 | not active | 41 | 0.63 |  |  | 
O=C(NCCF)NC1CCc2ncccc21 (stereo not drawn) | 100 | 1.08 |  | 2460 | 0.41 | 2550 | 0.55 | 
CC1=C(C)C(NC(=O)NCCF)CCC1 (stereo not drawn) | 19.7 | 0.76 | not active | 513 | 0.52 |  |  | 
O=C(NCCF)NC1Cc2cccc(F)c2C1 (stereo not drawn) | 21 | 0.68 | not active | 182 | 0.32 |  |  | 
Cc1cccc2c1CCCC2NC(=O)NCCF (stereo not drawn) | 5.6 | 1.3 |  | 123 | 1.03 | 48 | 0.41 | 
Cc1c(Cl)ccc2c1C(NC(=O)NCCF)CC2 (stereo not drawn) | 85 | 0.6 | not active |  |  |  |  | not active
O=C(NCCF)NC1CCc2ccc(Br)cc21 (stereo not drawn) | 302 | 0.52 | not active | 220 | 0.45 |  |  | 
O=C(NCCF)NC1CCc2cccc(F)c21 (stereo not drawn) | 8.8 | 1.08 |  | 95.4 | 0.55 | 59.6 | 0.41 | 
O=C(NCCF)NC1CCCCc2ccc(F)cc21 (stereo not drawn) | 913 | 0.54 |  | 341 | 0.3 | > 2000 | 0.31 | 
O=C(NCCF)NC1Cc2ccc(Cl)cc2C1 (stereo not drawn) | 1780 | 0.31 | not active |  |  |  |  | not active
O=C(NCCF)NC1CCCCc2ccccc21 (stereo not drawn) | 212 | 0.65 |  | 967 | 0.5 | 534 | 0.3 | 
